The subject of data set [1] is passive cutaneous anaphylaxis (PCA). The experiment in a line: anti-allergic action, passive cutaneous anaphylaxis (PCA) model in rats. Format: in vivo. To be noted: for ED50: Rattus norvegicus, dose which reduces diameter of color patch by 50% vs non-medicated controls, read-out: Inhibition of PCA in rats (oral), ED 50%; for times more active than Comparative Compound V1 / R.A. (relative activity): PCA in rats; for times more active than Comparative Compound V1: after oral administration; for R.A. (relative activity): relative to V1 (=1). Here is the method:
The anti-allergic action was tested on rats, using the passive cutaneous anaphylaxis (PCA) model.
Narcotized male rats (100-140 g) are sensitized by intradermal injection (into the shaved dorsal skin) of 0.1 ml of an ovalbumin antiserum. After a sensitization period of about 48 hours, the treatment (intraperitoneal or oral administration) is carried out with various dosages (10 animals/dose)of the test substances. 15-20 minutes after treatment, an antigen/Evans blue mixture (10 mg/kg of ovalbumin in 2% strength Evans blue solution) is intravenously injected into the test animals. 30 minutes later, the animals are sacrificed, the dorsal skin is removed and the diameter of the circular blue coloration is measured on the inner surface. The size of the color patches of untreated control animals can be standardized. Anti-allergic substances reduce the diameter of the color patch by an amount dependent on the dose. The ED 50% is quoted as the dose which reduces the diameter of the color patch by 50% relative to that of non-medicated control animals.

Data set [2] is described as follows: acute toxicity, rats, oral. The following applies: rat, in vivo, Sprague-Dawley rats, 14 days post-observation, read-out: LD 50, rats oral. Here is the method: (§1) In addition to the anti-allergic action, the acute toxicity was determined for intraperitoneal administration, using groups of 2 NMRI mice, each weighing 20-26 g, and for oral administration, using groups of 2 Sprague-Dawley rats, each weighing 120-150 g. The LD 50 was determined on groups of 10 NMRI mice, each weighing 20-26 g, after intraperitoneal administration. The post-observation period was 14 days.

A short description of data set [3]: acute toxicity (LD 50), mice, intraperitoneal. The following applies: mouse, in vivo, ip, NMRI mice, 14 days post-observation. Here is the method: as §1

Molecules are shown by their SMILES.

Turning to `O=C(O)c1cc(=O)c2c(OCC(O)COc3cccc4oc(C(=O)O)cc(=O)c34)cccc2o1` [Cromolyne, reference compound], the ED50 in data set [1] (rats, oral) worked out at 100 mg/kg. Moreover, the “activity in PCA (in words)” value in data set [1] (rats, oral, up to 100 mg/kg) is “inactive”. Further, the LD50 at 336 h in data set [2] is above 2150 mg/kg.

With `COCCOC(=O)C(=O)Nc1nc(-c2ccccc2)cs1` [Example 7, 2-Methoxyethyl N-(4-phenyl-thiazol-2-yl)-oxamate], the LD50 at 336 h was 655 mg/kg in data set [3] and above 2150 mg/kg in data set [2]. The “times more active than Comparative Compound V1” value in data set [1] is listed as 3.87 times. In addition, the “R.A. (relative activity)” value in data set [1] (oral) was found to be 3.87. Moreover, in data set [1] (rats, oral), the ED50 turned out to be 2.24 mg/kg.

With `CCOCCOC(=O)C(=O)Nc1nc(-c2ccccc2)cs1` [Example 9, 2-Ethoxyethyl N-(4-phenyl-thiazol-2-yl)-oxamate], the LD50 at 336 h is 956 mg/kg in data set [3] and above 2150 mg/kg in data set [2]. Further, the “times more active than Comparative Compound V1” value in data set [1] was 227 times. In addition, in data set [1] (oral), the “R.A. (relative activity)” value was 227. For the same molecule, in data set [1] (rats, oral), the ED50 is 0.0382 mg/kg.

For `COCCOCCOC(=O)C(=O)Nc1nc(-c2ccccc2)cs1` [Example 11, 2-(ω-Methoxyethyleneoxy)-ethyl N-(4-phenyl-thiazol-2-yl)-oxamate], the LD50 at 336 h in data set [3] is 705 mg/kg; in data set [2] it was above 2150 mg/kg. Further, the “R.A. (relative activity)” value in data set [1] (oral) was 4.01. Besides, in data set [1] (rats, oral), the ED50 came out at 2.16 mg/kg.

For `CCOCCOC(=O)C(=O)Nc1nc(-c2ccc(OC)cc2)cs1` [Example 14, 2-Ethoxyethyl N-[4-(4-methoxyphenyl)-thiazol-2-yl]-oxamate], the LD50 at 336 h in data set [3] was around 1000 mg/kg. The “R.A. (relative activity)” value in data set [1] (oral) amounted to 14.0. In addition, the ED50 in data set [1] (rats, oral) was 0.619 mg/kg.

For `CCOC(=O)C(=O)Nc1nc(-c2ccccc2)cs1` [Example V1, ethyl N-(4-phenyl-thiazol-2-yl)-oxamate, reference compound], the LD50 at 336 h was around 681 mg/kg in data set [3] and above 2150 mg/kg in data set [2]. Moreover, the “R.A. (relative activity)” value in data set [1] (oral) worked out at 1. In data set [1] (rats, oral), the ED50 came to 8.67 mg/kg.

Values taken from patent US4407810A, “Thiazol-2-yl-oxamic acid derivatives, and therapeutic agents containing these compounds” (BASF Aktiengesellschaft, priority 1980, dated 1983).
